Results reported in ChEMBL document CHEMBL3885881, “DrugMatrix”.

Species on record: Rattus norvegicus
Assay: DrugMatrix - Regimen: Daily Repeat
Type: toxicity, organism-based, Sprague-Dawley
Parameters: regimen Daily Repeat, gender Male, age 6-8 weeks
Settings: in vivo, po, 30 mg/kg, route oral GAVAGE, dose level Low, vehicle .5 % CMC; for ABSOLUTE BASOPHIL / ABSOLUTE EOSINOPHIL / ABSOLUTE LYMPHOCYTE / ABSOLUTE MONOCYTE / ABSOLUTE SEGMENTED NEUTROPHIL / BASOPHIL / EOSINOPHIL / ERYTHROCYTE COUNT / HEMATOCRIT / HEMOGLOBIN / LEUKOCYTE COUNT / LYMPHOCYTE / MEAN CORPUSCULAR HEMOGLOBIN / MEAN CORPUSCULAR HEMOGLOBIN CONCENTRATION / MEAN CORPUSCULAR VOLUME / MONOCYTE / NEUTROPHIL / NUCLEATED RED BLOOD CELLS / PLATELET COUNT: tissue Blood; for ALANINE AMINOTRANSFERASE / ALBUMIN / ALKALINE PHOSPHATASE / ASPARTATE AMINOTRANSFERASE / BLOOD UREA NITROGEN / CARBON DIOXIDE / CHLORIDE / CHOLESTEROL / CREATINE PHOSPHOKINASE / CREATININE / GLUCOSE / LACTATE DEHYDROGENASE / LIPASE / PHOSPHORUS / POTASSIUM / SODIUM / TOTAL BILIRUBIN / TOTAL PROTEIN / URIC ACID: tissue Plasma

CC(=O)CCCCn1c(=O)c2c(ncn2C)n(C)c1=O [PENTOXIFYLLINE]
ABSOLUTE BASOPHIL (72 h, time 3 day): 0 CELLS/uL
ABSOLUTE EOSINOPHIL (72 h, time 3 day): 54.67 CELLS/uL
ABSOLUTE LYMPHOCYTE (72 h, time 3 day): 16028 CELLS/uL
ABSOLUTE MONOCYTE (72 h, time 3 day): 106.67 CELLS/uL
ABSOLUTE SEGMENTED NEUTROPHIL (72 h, time 3 day): 1677.33 CELLS/uL
BASOPHIL (72 h, time 3 day): 0%
EOSINOPHIL (72 h, time 3 day): 0.33%
ERYTHROCYTE COUNT (72 h, time 3 day): 4.93 x10E6/uL
HEMATOCRIT (72 h, time 3 day): 32.23%
HEMOGLOBIN (72 h, time 3 day): 12.6 G/DL
LEUKOCYTE COUNT (72 h, time 3 day): 17.87 x10E3/uL
LYMPHOCYTE (72 h, time 3 day): 89.67%
MEAN CORPUSCULAR HEMOGLOBIN (72 h, time 3 day): 25.6 pg
MEAN CORPUSCULAR HEMOGLOBIN CONCENTRATION (72 h, time 3 day): 39.1 G/DL
MEAN CORPUSCULAR VOLUME (72 h, time 3 day): 65.47 fL
MONOCYTE (72 h, time 3 day): 0.67%
NEUTROPHIL (72 h, time 3 day): 9.33%
NUCLEATED RED BLOOD CELLS (72 h, time 3 day): 0.33 /100WBC
PLATELET COUNT (72 h, time 3 day): 1350 x10E3/uL
ALANINE AMINOTRANSFERASE (72 h, time 3 day): 62.33 u/L
ALBUMIN (72 h, time 3 day): 4.27 G/DL
ALKALINE PHOSPHATASE (72 h, time 3 day): 546.33 u/L
ASPARTATE AMINOTRANSFERASE (72 h, time 3 day): 100.33 u/L
BLOOD UREA NITROGEN (72 h, time 3 day): 17.33 mg/dL
CARBON DIOXIDE (72 h, time 3 day): 24.67 mmol/L
CHLORIDE (72 h, time 3 day): 107.67 MEQ/L
CHOLESTEROL (72 h, time 3 day): 71 mg/dL
CREATINE PHOSPHOKINASE (72 h, time 3 day): 318.67 u/L
CREATININE (72 h, time 3 day): 0.21 mg/dL
GLUCOSE (72 h, time 3 day): 160.67 mg/dL
LACTATE DEHYDROGENASE (72 h, time 3 day): 438.67 u/L
LIPASE (72 h, time 3 day): 10 u/L
PHOSPHORUS (72 h, time 3 day): 13.7 mg/dL
POTASSIUM (72 h, time 3 day): 6.67 MEQ/L
SODIUM (72 h, time 3 day): 149.33 MEQ/L
TOTAL BILIRUBIN (72 h, time 3 day): 0.2 mg/dL
TOTAL PROTEIN (72 h, time 3 day): 5.87 G/DL
URIC ACID (72 h, time 3 day): 1.47 mg/dL
ABSOLUTE BASOPHIL (120 h, time 5 day): 0 CELLS/uL
ABSOLUTE EOSINOPHIL (120 h, time 5 day): 0 CELLS/uL
ABSOLUTE LYMPHOCYTE (120 h, time 5 day): 10793.33 CELLS/uL
ABSOLUTE MONOCYTE (120 h, time 5 day): 47.67 CELLS/uL
ABSOLUTE SEGMENTED NEUTROPHIL (120 h, time 5 day): 492.33 CELLS/uL
BASOPHIL (120 h, time 5 day): 0%
EOSINOPHIL (120 h, time 5 day): 0%
ERYTHROCYTE COUNT (120 h, time 5 day): 5.84 x10E6/uL
HEMATOCRIT (120 h, time 5 day): 36.73%
HEMOGLOBIN (120 h, time 5 day): 13.57 G/DL
LEUKOCYTE COUNT (120 h, time 5 day): 11.33 x10E3/uL
LYMPHOCYTE (120 h, time 5 day): 95.33%
MEAN CORPUSCULAR HEMOGLOBIN (120 h, time 5 day): 23.23 pg
MEAN CORPUSCULAR HEMOGLOBIN CONCENTRATION (120 h, time 5 day): 36.97 G/DL
MEAN CORPUSCULAR VOLUME (120 h, time 5 day): 62.93 fL
MONOCYTE (120 h, time 5 day): 0.33%
NEUTROPHIL (120 h, time 5 day): 4.33%
NUCLEATED RED BLOOD CELLS (120 h, time 5 day): 0.33 /100WBC
PLATELET COUNT (120 h, time 5 day): 1319.67 x10E3/uL
ALANINE AMINOTRANSFERASE (120 h, time 5 day): 45 u/L
ALBUMIN (120 h, time 5 day): 4.5 G/DL
ALKALINE PHOSPHATASE (120 h, time 5 day): 368 u/L
ASPARTATE AMINOTRANSFERASE (120 h, time 5 day): 79.67 u/L
BLOOD UREA NITROGEN (120 h, time 5 day): 18.33 mg/dL
CARBON DIOXIDE (120 h, time 5 day): 23 mmol/L
CHLORIDE (120 h, time 5 day): 105.33 MEQ/L
CHOLESTEROL (120 h, time 5 day): 65 mg/dL
CREATINE PHOSPHOKINASE (120 h, time 5 day): 458.33 u/L
CREATININE (120 h, time 5 day): 0.21 mg/dL
GLUCOSE (120 h, time 5 day): 166 mg/dL
LACTATE DEHYDROGENASE (120 h, time 5 day): 154.67 u/L
LIPASE (120 h, time 5 day): 10.33 u/L
PHOSPHORUS (120 h, time 5 day): 13.7 mg/dL
POTASSIUM (120 h, time 5 day): 7.08 MEQ/L
SODIUM (120 h, time 5 day): 148.67 MEQ/L
TOTAL BILIRUBIN (120 h, time 5 day): 0.2 mg/dL
TOTAL PROTEIN (120 h, time 5 day): 6.43 G/DL
URIC ACID (120 h, time 5 day): 2.37 mg/dL
